Experimental data published in patent US5026698A, “Thienopyridine type mevalonolactones” (Nissan Chemical Industries, Ltd., priority 1988, dated 1991).

Assays:
[1] = tested on: cholesterol biosynthesis in Hep G2 cells; test: Test B-1: Inhibition of cholesterol biosynthesis in culture cells (Hep G2, [2-14C]sodium acetate added at 0 hr); assay type: cell-based; conditions: for inhibition at 1 µM: 1.0 × 10^-6 mol/l, read-out: Inhibitory activities at a concentration of 1.0 × 10^-6 mol/l by Test B-1 (Relative activities); for Relative activities by Test B-1: based on the activity of CS-514 by Test B-1 being evaluated to be 1
Method: Hep G2 cells at over 5th passage were seeded to 12 well plates and incubated with Dulbecco's modified Eagle (DME) medium containing 10% of fetal bovine serum (FBS) at 37° C., 5% CO2 until cells -were confluent for about 7 days. Cells were exposed to the DME medium containing 5% of lipoprotein deficient serum (LpDS) prepared by ultracentrifugation method for over 24 hours. Medium was changed to 0.5 ml of fresh 5% LpDS containing DME before assay and 10 μl of test compound solution dissolved in water or DMSO were added. 0.2 μCi of [2-^14 C]sodium acetate (20 μl) was added at 0 hr(B 1) or 4 hrs(B 2) after addition of compounds. After 4 hrs further incubation with [2-^14 C]sodium acetate, medium was removed and cells were washed with phosphate buffered saline (PBS) chilled at 4° C. Cells were scraped with rubber policeman and collected to tubes with PBS and digested with 0.2 ml of 0.5N KOH at 37° C. Aliquot of digestion was used for protein analysis and remaining was saponified with 1 ml of 15% EtOH-KOH at 75° C. for 1 hour. Nonsaponifiable lipids were extracted with petroleum ether and ^14 C radioactivity was counted. Counts were revised by cell protein and indicated with DPM/mg protein. Inhibitory activity of compounds was indicated with IC50. With respect to the compounds of the present invention, the inhibitory activities against the cholesterol biosynthesis in which HMG-CoA reductase serves as a rate limiting enzyme, were measured by the above Test A and B.

cholesterol biosynthesis [2] = test: Test A: Inhibition of cholesterol biosynthesis from acetate in vitro (rat liver microsome and sup fraction, [2-14C]sodium acetate); assay type: biochemical, male Wistar rat; conditions: for Relative activities by Test A: based on the activity of CS-514 by Test A being evaluated to be 1
Method: Enzyme solution was prepared from liver of male Wistar rat billialy connulated and discharged bile for over 24 hours. Liver was cut out at mid-dark and microsome and supernatant fraction which was precipitable with 40-80% of solution of ammonium sulfate (sup fraction) were prepared from liver homogenate according to the modified method of Knauss et. al.; Kuroda, M., et. al., Biochim. Biophys. Acta, 489, 119 (1977). For assay of cholesterol biosynthesis, microsome (0.1 mg protein) and sup fraction (1.0 mg protein) were incubated for 2 hours at 37° C. in 200 μl of the reaction mixture containing ATP; 1 mM, Glutathione; 6 mM, Glucose-1-phosphate; 10 mM, AND; 0.25 mM, NADP; 0.25 mM, CoA; 0.04 mM and 0.2 mM [2-^14 C]sodium acetate (0.2 μCi) with 4 μl of test compound solution dissolved in water or dimethyl sulfoxide. To stop reaction and saponify, 1 ml of 15% EtOH-KOH was added to the reactions and heated at 75° C. for 1 hour. Nonsaponifiable lipids were extracted with petroleum ether and incorporated ^14 C radioactivity was counted. Inhibitory activity of compounds was indicated with IC50.
With respect to the compounds of the present invention, the inhibitory activities against the cholesterol biosynthesis in which HMG-CoA reductase serves as a rate limiting enzyme, were measured by the above Test A and B. The results are shown in Tables 2, 3-1 and 3-2.
The relative activities of the compounds of the present invention based on the activities of CS-514 by Test A being evaluated to be 1, are shown in Table 2.

Test D: Acute toxicity = conditions: mouse, in vivo, 1000 mg/kg; oral, 1,000 mg/kg, 0.5% CMC suspension, ICR male mice (group of three); read-out: mortality after seven days
Method: A 0.5% CMC suspension of a test compound was orally administered to ICR male mice (group of three mice). The acute toxicity was determined based on the mortality after seven darys. With compound I-5-1, I-5-2, I-5-8, I-5-9 and I-5-10 of the present ivnention, the mortality was 0% even when they were orally administered in an amount of 1,000 mg/kg, respectively.

cholesterol biosynthesis [3] = test: Test C: Inhibition of cholesterol biosynthesis in vivo; design: species or system Male Sprague-Dawley rats; conditions: oral, 0.2 mg/kg, rats; DPM/2 ml serum/2 hours
Method: Male Sprague-Dawley rats weighing about 150 g were fed normal Purina chow diet and water ad libitum, and exposed to 12 hours light/12 hours dark lighting pattern (2:00 PM-2:00 AM dark) prior to use for in vivo inhibition test of cholesterol biosynthesis. Animals were separated groups consisting of five rats as to be average mean body weight in each groups. Test compounds at dosage of 0.02-0.2 mg/kg body weight (0.4 ml/100 g body weight), were dissolved in water or suspended in 0 5% methyl cellulose and orally administered at 2-3 hours before mid-dark (8:00 PM), while cholesterol biosynthesis reaches to maximum in rats. As control, rats were orally administered only water or vehicle. At 90 minutes after sample administration, rats were injected intraperitoneally with 10 μCi of [2-^14 C]sodium acetate at volume of 0.2 ml per one. 2 Hours later, blood samples were obtained and serum were separated immediately. Total lipids were extracted according to the method of Folch et al. and saponified with EtOH-KOH. Nonsaponifiable lipids were extracted with petroleum ether and radio activity incorporated into nonsaponifiable lipids was counted.
Inhibitory activity was indicated as percent decrease of counts in testing groups (DPM/2 ml serum/2 hours) from that in control group.

[4] = Homo sapiens, HepG2, Hep G2 cells

| Structure (SMILES) | inhibition at 1 µM [1, 4] [%] | Relative activities by Test A (cholesterol biosynthesis [2]) | mortality at 168 h (Test D: Acute toxicity) [%] | Relative activities by Test B-1 [1] | further results |
| --- | --- | --- | --- | --- | --- |
| CC(C)c1nc2sc3c(c2c(-c2ccc(F)cc2)c1/C=C/C(O)CC(O)CC(=O)O)CCC3 (stereo not shown) [Compound I-5-8] | 63.6 | 0.32 | 0 | – | – |
| CCc1c(C)sc2nc(C3CC3)c(/C=C/C(O)CC(O)CC(=O)O)c(-c3ccc(F)cc3)c12 (stereo not shown) [Compound I-5-7] | 64.1 | 0.36 | – | – | – |
| O=C(O)CC(O)CC(O)/C=C/c1c(C2CC2)nc2sc3c(c2c1-c1ccc(F)cc1)CCC3 (stereo not shown) [Compound I-5-9] | 62.4 | 2.9 | 0 | – | – |
| CC(C)c1nc2sc3c(c2c(-c2ccc(F)cc2)c1/C=C/C(O)CC(O)CC(=O)O)CCCC3 (stereo not shown) [Compound I-5-6] | – | 4.1 | – | 152 | – |
| O=C(O)CC(O)CC(O)/C=C/c1c(C2CC2)nc2sccc2c1-c1ccc(F)cc1 (stereo not shown) [Compound I-5-11] | – | – | – | 60 | percent decrease of counts relative to control group (Test C) (cholesterol biosynthesis [3]): 65% |
| CC(C)c1nc2sc(-c3ccccc3)cc2c(-c2ccc(F)cc2)c1/C=C/C(O)CC(O)CC(=O)O (stereo not shown) [Compound I-5-3] | 46.8 | – | – | – | – |
| CCc1c(C)sc2nc(C(C)C)c(/C=C/C(O)CC(O)CC(=O)O)c(-c3ccc(F)cc3)c12 (stereo not shown) [Compound I-5-1, Sodium (E)-7-[3'-ethyl-4'-(4"-fluorophenyl)-2'-methyl-6'-(1"-methylethyl)thieno[2,3-b]pyridin-5'-yl]-3,5-dihydroxyhept-6-enoate] | – | 0.55 | 0 | 152 | – |
| CCOC(=O)CC(=O)CC(O)/C=C/c1c(C(C)C)nc2sc(C)cc2c1-c1ccc(F)cc1 (stereo not shown) [II-2] | – | – | – | 152 | – |
| CC(C)c1cc2c(-c3ccc(F)cc3)c(/C=C/C(O)CC(O)CC(=O)O)c(C(C)C)nc2s1 (stereo not shown) [Compound I-5-5] | 69.8 | 0.31 | – | 62 | – |
| CCOC(=O)CC(O)CC(O)/C=C/c1c(C(C)C)nc2sc(C)c(CC)c2c1-c1ccc(F)cc1 (stereo not shown) [Compound I-1-1, Ethyl (E)-7-[3'-ethyl-4'-(4"-fluorophenyl)-2'-methyl-6'-(1"-methylethyl)thieno[2,3-b]pyridin-5'-yl]-3,5-dihydroxyhept-6-enoate] | – | 0.50 | – | 196 | – |
| Cc1sc2nc(C(C)C)c(/C=C/C(O)CC(O)CC(=O)O)c(-c3ccc(F)cc3)c2c1-c1ccccc1 (stereo not shown) [Compound I-5-4] | 48.2 | – | – | 1.4 | – |
| Cc1cc2c(-c3ccc(F)cc3)c(/C=C/C(O)CC(O)CC(=O)O)c(C(C)C)nc2s1 (stereo not shown) [Compound I-5-2] | – | 0.51 | 0 | 76 | – |
| CC[C@H](C)C(=O)O[C@H]1C[C@H](O)C=C2C=C[C@H](C)[C@H](CC[C@@H](O)C[C@@H](O)CC(=O)O)[C@H]21 [CS-514, reference compound] | – | – | – | – | IC50 ([1]; Homo sapiens, HepG2, Hep G2 cells, [2-14C]sodium acetate added at 0 hr): 1.37 µM; IC50 (cholesterol biosynthesis [2]; rat liver microsome + sup fraction, 2 hours at 37° C.): 0.009 µM; percent decrease of counts relative to control group (Test C) (cholesterol biosynthesis [3]): 34% |
| O=C(O)CC(O)CC(O)/C=C/c1c(C2CC2)nc2sc3c(c2c1-c1ccc(F)cc1)CCCCC3 (stereo not shown) [Compound I-5-10] | 53.6 | 0.21 | 0 | – | – |
| O=C1C[C@H](O)C[C@@H](/C=C/c2c(C3CC3)nc3sccc3c2-c2ccc(F)cc2)O1 (relative stereo) [Compound I-3-11, (E)-trans-6-[2'-(6"-cyclopropyl-4"-(4"'-fluorophenyl)-thieno[2,3-b]pyridin-5"-yl)ethenyl]-4-hydroxy-3,4,5,6-tetrahydro-2H-pyran-2-one] | – | – | – | – | percent decrease of counts relative to control group (Test C) (cholesterol biosynthesis [3]): 68% |
